# Reference: patent US4492693A, “Benzothienylglycyl cephalosporin derivatives” (priority 1983, dated 1985)
# Read-outs that look alike come from different tables or passages of the source.
# Experiments:
# H. influenzae = assay: Expanded Spectrum MIC (Table II); assay type: cell-based; details: Haemophilus influenzae
# Source text: (§1) A typical and preferred compound provided by this invention is 7-(3-benzothienyl)glycylamido-3-methyl-3-cephem-4-carboxylic acid, the compound illustrated in Example 9. The antibacterial activity of this compound has been determined in standard in vitro agar dilution assays against a variety of gram positive and gram negative microorganism. The following Tables present typical minimum inhibitory concentrations (MIC's) in μg/ml for several compounds of the invention when evaluated against the indicated microorganisms. MIC's for several known compounds are also presented for comparison.
# (§2) Expanded Spectrum MIC (μg/ml)
# Staph. aureus [1] = assay: Expanded Spectrum MIC (Table II); assay type: cell-based; details: Staphylococcus aureus
# Source text: as §1, §2
# [2] = tested on: β-lactamase, organism 1313G; assay: Stability to β-lactamase (Table V); assay type: biochemical; details: lower numbers mean greater stability
# [3] = tested on: β-lactamase, organism 265A; assay: Stability to β-lactamase (Table V); assay type: biochemical; details: lower numbers mean greater stability
# bacteria = assay: Antibacterial activity (general statements); assay type: cell-based; details: anaerobic bacteria and Haemophilus influenzae, more strains
# Bacteroides fragilis [4] = assay: Expanded anaerobic Spectrum MIC (Table IV); assay type: cell-based
# Strep. D = assay: Agar Dilution MIC (Table I); assay type: cell-based; details: for MIC: read-out: Agar Dilution MIC
# Source text: as §1
# Agar Dilution MIC (μg/ml)
# Haemophilus influenzae = assay: Expanded H. influenzae Spectrum MIC (Table IV); assay type: cell-based
# H. influ. = assay: Agar Dilution MIC (Table I); assay type: cell-based; details: read-out: Agar Dilution MIC
# Klebsiella = assay: Agar Dilution MIC (Table I); assay type: cell-based; details: for MIC: Klebsiella, read-out: Agar Dilution MIC
# Strep. A = assay: Agar Dilution MIC (Table I); assay type: cell-based; details: read-out: Agar Dilution MIC
# [5] = tested on: β-lactamase, organism 1082E; assay: Stability to β-lactamase (Table V); assay type: biochemical; details: lower numbers mean greater stability
# E. coli = assay: Agar Dilution MIC (Table I); assay type: cell-based; details: Escherichia coli
# Strep. PN = assay: Agar Dilution MIC (Table I); assay type: cell-based; details: strain PARK
# [6] = tested on: β-lactamase, organism TEM; assay type: biochemical; details: lower numbers mean greater stability
# [7] = tested on: β-lactamase, organism PS185; assay: Stability to β-lactamase (Table V); assay type: biochemical; details: lower numbers mean greater stability
# Bacteroides fragilis [8] = assay: Susceptibility of Anaerobic Bacteroides Isolates by the Agar-Dilution Method (Table III); assay type: cell-based; details: 24 h
# Source text: as §1
# (§3) Susceptibility of Anaerobic Bacteroides Isolates by the
# (§4) Agar-Dilution Method MIC (μg/ml) readings 24 hrs. after incubation
# Bacteroides corrodens = assay: as above; assay type: cell-based; details: Eikenella corrodens; strain 1874; readings 24 hrs. after incubation
# Source text: as §1, §3, §4
# [9] = tested on: Bacteroides thetaiotaomicron; assay: as above; assay type: cell-based; details: 24 h
# Source text: as §1, §3, §4
# Staph. epi [10] = assay: Expanded Spectrum MIC (Table II); assay type: cell-based
# Source text: as §1, §2
# Staph. epi [11] = assay: Agar Dilution MIC (Table I); assay type: cell-based; details: read-out: Agar Dilution MIC
# Staph. aureus [12] = assay: Agar Dilution MIC (Table I); assay type: cell-based; details: Staphylococcus aureus
# [13] = mean over strains, read-out: MIC mean
# [14] = strain 9, readings 24 hrs. after incubation
# [15] = strain 103, readings 24 hrs. after incubation
# [16] = strain 104, readings 24 hrs. after incubation
# [17] = strain 106, readings 24 hrs. after incubation
# [18] = strain 107, readings 24 hrs. after incubation
# [19] = strain 108, readings 24 hrs. after incubation
# [20] = strain 110, readings 24 hrs. after incubation
# [21] = strain 111, readings 24 hrs. after incubation
# [22] = strain 1877, readings 24 hrs. after incubation
# [23] = strain 1438, readings 24 hrs. after incubation
# [24] = strain 1900A, readings 24 hrs. after incubation
smiles,measurement,setting,value
"CC1=C(C(=O)O)N2C(=O)C(NC(=O)C(N)c3csc4ccccc34)C2SC1 (centres unmarked) [Ex. 9, 7-(3-Benzothienyl)glycylamido-3-methyl-3-cephem-4-carboxylic acid]",MIC,H. influenzae; strain 76,1 µg/mL
same,MIC,H. influenzae; strain 105,1 µg/mL
same,MIC,H. influenzae; strain 158,1 µg/mL
same,MIC,H. influenzae; strain 164,1 µg/mL
same,MIC,H. influenzae; strain 169,1 µg/mL
same,MIC,H. influenzae; strain 171,1 µg/mL
same,MIC,H. influenzae; strain 312,1 µg/mL
same,MIC,H. influenzae; strain 1683,0.5 µg/mL
same,MIC,H. influenzae; strain 1930,1 µg/mL
same,MIC,H. influenzae; strain 4842,1 µg/mL
same,MIC,H. influenzae; strain C.L.,2 µg/mL
same,MIC,H. influenzae; strain HESS,1 µg/mL
same,MIC,H. influenzae; strain M366,64 µg/mL
same,MIC,H. influenzae; strain M370,1 µg/mL
same,MIC,H. influenzae; strain M371,1 µg/mL
same,MIC,H. influenzae; strain R465,64 µg/mL
same,MIC,H. influenzae; strain STEL,64 µg/mL
same,MIC,Staph. aureus [1]; strain S224,1 µg/mL
same,MIC,Staph. aureus [1]; strain S225,1 µg/mL
same,MIC,Staph. aureus [1]; strain S226,2 µg/mL
same,MIC,Staph. aureus [1]; strain S227,1 µg/mL
same,MIC,Staph. aureus [1]; strain S228,1 µg/mL
same,MIC,Staph. aureus [1]; strain S229,2 µg/mL
same,MIC,Staph. aureus [1]; strain S230,1 µg/mL
same,MIC,Staph. aureus [1]; strain S231,1 µg/mL
same,MIC,Staph. aureus [1]; strain S234,2 µg/mL
same,MIC,Staph. aureus [1]; strain S237,1 µg/mL
same,MIC,Staph. aureus [1]; strain S238,2 µg/mL
same,MIC,Staph. aureus [1]; strain S239,2 µg/mL
same,Stability to β-lactamase,[2],210
same,Stability to β-lactamase,[3],14
same,potency compared to known antibiotics,bacteria,much more potent than those with which it was compared
same,MIC,"Bacteroides fragilis [4]; geometric mean over strains, read-out: MIC Geometric mean",0.7 µg/mL
same,MIC,Bacteroides fragilis [4]; [13],1.2 µg/mL
same,MIC,"Bacteroides fragilis [4]; strain 180-821, read-out: MIC",0.5 µg/mL
same,MIC,"Bacteroides fragilis [4]; strain 10668, read-out: MIC",0.5 µg/mL
same,MIC,"Bacteroides fragilis [4]; strain 10683, read-out: MIC",0.5 µg/mL
same,MIC,"Bacteroides fragilis [4]; strain 10695, read-out: MIC",0.5 µg/mL
same,MIC,"Bacteroides fragilis [4]; strain 10732, read-out: MIC",0.5 µg/mL
same,MIC,"Bacteroides fragilis [4]; strain 10750, read-out: MIC",8 µg/mL
same,MIC,"Bacteroides fragilis [4]; strain 10774, read-out: MIC",1 µg/mL
same,MIC,"Bacteroides fragilis [4]; strain 10817, read-out: MIC",0.5 µg/mL
same,MIC,"Bacteroides fragilis [4]; strain 10837, read-out: MIC",0.5 µg/mL
same,MIC,"Bacteroides fragilis [4]; strain 107266, read-out: MIC",0.5 µg/mL
same,MIC,"Bacteroides fragilis [4]; strain 107268, read-out: MIC",2 µg/mL
same,MIC,"Bacteroides fragilis [4]; strain 108133, read-out: MIC",0.5 µg/mL
same,MIC,Strep. D; strain 2041,64 µg/mL
same,MIC,Strep. D; strain X66,128 µg/mL
same,MIC,"Haemophilus influenzae; geometric mean over strains, read-out: MIC Geometric Mean",1.1 µg/mL
same,MIC,Haemophilus influenzae; [13],2.1 µg/mL
same,MIC,"Haemophilus influenzae; strain 101, read-out: MIC",1 µg/mL
same,MIC,Haemophilus influenzae; strain 102,16 µg/mL
same,MIC,"Haemophilus influenzae; strain 103, read-out: MIC",0.5 µg/mL
same,MIC,"Haemophilus influenzae; strain 105, read-out: MIC",0.5 µg/mL
same,MIC,"Haemophilus influenzae; strain 107, read-out: MIC",1 µg/mL
same,MIC,"Haemophilus influenzae; strain 108, read-out: MIC",2 µg/mL
same,MIC,"Haemophilus influenzae; strain 109, read-out: MIC",1 µg/mL
same,MIC,"Haemophilus influenzae; strain 110, read-out: MIC",0.5 µg/mL
same,MIC,"Haemophilus influenzae; strain 111, read-out: MIC",0.5 µg/mL
same,MIC,"Haemophilus influenzae; strain 112, read-out: MIC",2 µg/mL
same,MIC,"Haemophilus influenzae; strain 113, read-out: MIC",0.5 µg/mL
same,MIC,"Haemophilus influenzae; strain 114, read-out: MIC",2 µg/mL
same,MIC,H. influ.; strain 76,0.5 µg/mL
same,MIC,H. influ.; strain C.L.,2 µg/mL
same,MIC,Klebsiella; strain KAE,128 µg/mL
same,MIC,Klebsiella; strain X26,2 µg/mL
same,MIC,Klebsiella; strain X68,128 µg/mL
same,MIC,Strep. A,0.125 µg/mL
same,Stability to β-lactamase,[5],25
same,MIC,E. coli; strain EC14,32 µg/mL
same,MIC,E. coli; strain N10,128 µg/mL
same,MIC,E. coli; strain TEM,32 µg/mL
same,MIC,Strep. PN,0.5 µg/mL
same,Stability to β-lactamase,[6],3
same,Stability to β-lactamase,[7],25
same,MIC,Bacteroides fragilis [8]; [14],4 µg/mL
same,MIC,Bacteroides fragilis [8]; [15],32 µg/mL
same,MIC,Bacteroides fragilis [8]; [16],4 µg/mL
same,MIC,Bacteroides fragilis [8]; [17],4 µg/mL
same,MIC,Bacteroides fragilis [8]; [18],8 µg/mL
same,MIC,Bacteroides fragilis [8]; [19],4 µg/mL
same,MIC,Bacteroides fragilis [8]; [20],8 µg/mL
same,MIC,Bacteroides fragilis [8]; [21],64 µg/mL
same,MIC,Bacteroides fragilis [8]; [22],8 µg/mL
same,MIC,Bacteroides corrodens,32 µg/mL
same,MIC,[9]; [23],4 µg/mL
same,MIC,[9]; [24],16 µg/mL
"CC1=C(C(=O)O)N2C(=O)C(NC(=O)[C@H](N)c3csc4c(F)cccc34)C2SC1 (stereo partly drawn) [Ex. 20, D-7-(7-Fluoro-3-benzothienyl)glycylamido-3-methyl-3-cephem-4-carboxylic acid]",MIC,H. influenzae; strain 76,1 µg/mL
same,MIC,H. influenzae; strain 105,2 µg/mL
same,MIC,H. influenzae; strain 158,2 µg/mL
same,MIC,H. influenzae; strain 164,2 µg/mL
same,MIC,H. influenzae; strain 169,4 µg/mL
same,MIC,H. influenzae; strain 171,2 µg/mL
same,MIC,H. influenzae; strain 312,4 µg/mL
same,MIC,H. influenzae; strain 1683,1 µg/mL
same,MIC,H. influenzae; strain 1930,4 µg/mL
same,MIC,H. influenzae; strain 4842,2 µg/mL
same,MIC,H. influenzae; strain C.L.,16 µg/mL
same,MIC,H. influenzae; strain HESS,8 µg/mL
same,MIC,H. influenzae; strain M366,64 µg/mL
same,MIC,H. influenzae; strain M370,2 µg/mL
same,MIC,H. influenzae; strain M371,2 µg/mL
same,MIC,H. influenzae; strain R465,64 µg/mL
same,MIC,H. influenzae; strain STEL,64 µg/mL
same,MIC,Staph. aureus [1]; strain S224,2 µg/mL
same,MIC,Staph. aureus [1]; strain S225,2 µg/mL
same,MIC,Staph. aureus [1]; strain S226,2 µg/mL
same,MIC,Staph. aureus [1]; strain S227,2 µg/mL
same,MIC,Staph. aureus [1]; strain S228,2 µg/mL
same,MIC,Staph. aureus [1]; strain S229,2 µg/mL
same,MIC,Staph. aureus [1]; strain S230,2 µg/mL
same,MIC,Staph. aureus [1]; strain S231,1 µg/mL
same,MIC,Staph. aureus [1]; strain S234,2 µg/mL
same,MIC,Staph. aureus [1]; strain S237,2 µg/mL
same,MIC,Staph. aureus [1]; strain S238,4 µg/mL
same,MIC,Staph. aureus [1]; strain S239,2 µg/mL
same,MIC,Staph. epi [10]; strain 219,2 µg/mL
same,MIC,Staph. epi [10]; strain 269,4 µg/mL
same,MIC,Staph. epi [10]; strain 270,8 µg/mL
same,MIC,Staph. epi [10]; strain 285,4 µg/mL
same,MIC,Staph. epi [10]; strain 286,1 µg/mL
same,MIC,Staph. epi [10]; strain EPI1,16 µg/mL
same,MIC,Strep. D,128 µg/mL
same,Agar Dilution MIC,Strep. D; strain 2041,128 µg/mL
same,MIC,Staph. epi [11]; strain 222,2 µg/mL
same,MIC,Staph. epi [11]; strain EPI1,4 µg/mL
same,MIC,"Staph. aureus [12]; read-out: Agar Dilution MIC, strain S13E",8 µg/mL
same,MIC,"Staph. aureus [12]; strain V41, read-out: Agar Dilution MIC",16 µg/mL
same,MIC,"Staph. aureus [12]; strain X1.1, read-out: Agar Dilution MIC",0.5 µg/mL
same,MIC,"Staph. aureus [12]; strain X400, read-out: Agar Dilution MIC",128 µg/mL
same,MIC,H. influ.; strain 76,0.5 µg/mL
same,MIC,H. influ.; strain C.L.,4 µg/mL
same,MIC,Klebsiella,128 µg/mL
same,MIC,Klebsiella; strain X26,4 µg/mL
same,Agar Dilution MIC,Klebsiella; strain X68,128 µg/mL
same,MIC,Strep. A; strain C203,0.125 µg/mL
same,MIC,E. coli; strain EC14,128 µg/mL
same,MIC,E. coli; strain N10,128 µg/mL
same,MIC,E. coli; strain TEM,128 µg/mL
same,MIC,Strep. PN,0.5 µg/mL
same,MIC,Bacteroides fragilis [8]; [14],16 µg/mL
same,MIC,Bacteroides fragilis [8]; [15],64 µg/mL
same,MIC,Bacteroides fragilis [8]; [16],8 µg/mL
same,MIC,Bacteroides fragilis [8]; [17],16 µg/mL
same,MIC,Bacteroides fragilis [8]; [18],32 µg/mL
same,MIC,Bacteroides fragilis [8]; [19],8 µg/mL
same,MIC,Bacteroides fragilis [8]; [20],32 µg/mL
same,MIC,Bacteroides fragilis [8]; [21],128 µg/mL
same,MIC,Bacteroides fragilis [8]; [22],16 µg/mL
same,MIC,Bacteroides corrodens,64 µg/mL
same,MIC,[9]; [23],16 µg/mL
same,MIC,[9]; [24],32 µg/mL
